PMC8809056 (Science (New York, N.y.), 2021)

Columns and labels:
OC43 = OC43 infection of A549 cells, viral nucleoprotein staining; type: cell-based, human beta coronavirus OC43; conditions: for Inhibition of OC43 infection, dose-response validation (in words): A549 cells; for EC50: Betacoronavirus 1, OC43, A549, 96 h, read-out: EC50 against OC43 infection
3CL = tested on: 3CL; design: method as in doi:10.1101/2020.08.29.272864; conditions: read-out: Previously reported IC50 in cells; cited from earlier work
[1] = mouse, in vivo
SARS-CoV-2 3CL = target: T1, SARS-CoV-2 3CL (Severe acute respiratory syndrome coronavirus 2, UniProt P0DTD1); experiment: Fluorescence-based 3CL enzyme activity assay in vitro (enzyme kinetics, Dixon plot); type: biochemical; conditions: range of substrate and inhibitor concentrations, SigmaPlot fit
T1 construct: the main viral protease, known as Mpro, 3CLpro, or nonstructural protein 5 (nsp5); made in house
Text: Individual measurements are shown as semitransparent gray circles. Error bars depict means ± SEM. […] Individual measurements are shown as circles. […] RFU, relative fluorescence units.
To test this, we measured the rate of the 3CL enzymatic reaction in vitro using a fluorescence-based enzyme activity assay ([29]). We measured the rate of 3CL activity in a range of substrate and inhibitor concentrations and fitted the data to equations describing different modes of inhibition using SigmaPlot Enzyme Kinetics Module 1.3 (see methods).

3C protease = 3C protease (Coxsackievirus B3, UniProt P03313); type: cell-based, picornaviruses
PLpro = target: T2, PLpro (Severe acute respiratory syndrome coronavirus 2, UniProt P0DTD1); experiment: PLpro activity assay; type: biochemical, SARS-CoV-2; conditions: fig. S7
T2 construct: the papain-like protease, PLpro, a domain within nsp3

[2] = tested on: SARS-CoV-2 (nCoV/Washington/1/2020); type: in vivo, mice
[3] = feline model of asthma; cited from earlier work
other RNA viruses = experiment: Replication of other RNA viruses; type: cell-based
multiple picornaviruses = experiment: Replication of picornaviruses; type: cell-based; conditions: fig. S8B
[4] = 25 mg kg−1 twice a day, day six

Sequence of 3C protease (P03313 1541-1723 limits assumed): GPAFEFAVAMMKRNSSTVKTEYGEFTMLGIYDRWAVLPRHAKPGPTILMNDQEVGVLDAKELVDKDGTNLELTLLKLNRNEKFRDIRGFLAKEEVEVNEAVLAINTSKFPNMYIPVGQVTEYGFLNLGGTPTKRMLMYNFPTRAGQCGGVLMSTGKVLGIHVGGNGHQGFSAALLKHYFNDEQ

In the case of `Cc1ccc(NC(=O)c2ccc(CN3CCNCC3)cc2)cc1Nc1nc(-c2cccnc2)cs1` [AB3280], the “Inhibition of OC43 infection, dose-response validation (in words)” value (shortened to “Inhibition of OC43 infection”) (OC43) is reported as “maintains its antiviral activity”.

Work on `C[C@@H]1[C@H](O)[C@@H](C)/C=C/C=C/C=C/C=C/C=C/C=C/C=C/[C@H](O[C@@H]2O[C@H](C)[C@@H](O)[C@H](N)[C@@H]2O)C[C@@H]2O[C@](O)(C[C@@H](O)C[C@@H](O)[C@H](O)CC[C@@H](O)C[C@@H](O)CC(=O)O[C@H]1C)C[C@H](O)[C@H]2C(=O)O` [Amphotericin B] yielded an EC50 (OC43) of 190 nM.

With `Cc1ccc(NC(=O)c2ccc(CN3CC[C@H](N(C)C)C3)c(C(F)(F)F)c2)cc1Nc1nccc(-c2cncnc2)n1` [Bafetinib] the EC50 (OC43) was 2100 nM.

In the case of `CCCCOC(=O)c1ccc(N)cc1` [Butamben], the EC50 (OC43) is reported as 3100 nM.

With `CCCCOC(=O)c1ccc(O)cc1` [Butylparaben] the EC50 (OC43) was 1700 nM.

`COc1cc2c(Oc3ccc4[nH]c(C)cc4c3F)ncnc2cc1OCCCN1CCCC1` [Cediranib] showed an EC50 (OC43) of 520 nM.

Compound `COc1ccc2cc1Oc1ccc(cc1)C[C@H]1c3c(cc4c(c3Oc3cc5c(cc3OC)CCN(C)[C@@H]5C2)OCO4)CCN1C` [Cepharanthine] has an EC50 (OC43) of 770 nM.

In the case of `CN(C)CCCN1c2ccccc2CCc2ccc(Cl)cc21` [Clomipramine], the “OC43 infection in drug-repurposing screen” value (OC43; 10 μM, 4 days) is reported as “top hits”.

Compound `COC(=O)N[C@H](C(=O)N1CCC[C@H]1c1nc(-c2ccc3c(c2)O[C@@H](c2ccccc2)n2c-3cc3cc(-c4c[nH]c([C@@H]5CCCN5C(=O)[C@@H](NC(=O)OC)C(C)C)n4)ccc32)c[nH]1)C(C)C` [Elbasvir] has an EC50 (OC43) of 170 nM.

For `OCCN1CCN(CCC=C2c3ccccc3Sc3ccc(C(F)(F)F)cc32)CC1` [Flupenthixol], the EC50 (OC43) was 1800 nM.

For `O=C(Oc1cncc(Cl)c1)c1cccc2[nH]ccc12` [GRL-0496], the IC50 (3CL) is listed as 5000 nM.

With `CS(=O)(=O)CCNCc1ccc(-c2ccc3ncnc(Nc4ccc(OCc5cccc(F)c5)c(Cl)c4)c3c2)o1` [Lapatinib] the EC50 (OC43) was 3100 nM.

In the case of `Cc1ccc(NC(=O)c2ccc(CN3CCN(C)CC3)cc2)cc1Nc1nc(-c2cccnc2)cs1` [Masitinib], the Tolerability of dose [1] is reported as “well tolerated, with minimal weight loss”, the “Mode of 3CL inhibition” value (SARS-CoV-2 3CL) is reported as “competitive inhibition gave the best fit” and the “Effect on 3C protease activity” value (3C protease) is reported as “significantly inhibited the activity of the 3C protease”. For the same compound, the “Effect on PLpro activity” value (PLpro) was “no effect”, the “Reduction in viral titers in the lungs and nose (log)” value [2, 4] was “greater than two-log reduction” and the “Reduction of the viral load” value [2, 4] was greater than 99%. The “Concentrations of proinflammatory cytokines (such as IL-1β, IFN-γ) in the lungs” value ([2]; day six) was “significantly reduced”, the Overall lung pathology ([2]; day six, blindly scored 0 to 4) was “improved overall lung pathology” and the “Reduction in viral titers in the lungs” value ([2]; mouse, in vivo) was greater than 200 fold. The “Reduction in viral titers in the nose” value ([2]; mouse, in vivo) was greater than 200 fold, the “Survival, weight loss and clinical scores” value ([2]; up to 10 days) was “improvements in survival” and the “Airway inflammation and lung functions” value [3] was “decrease airway inflammation and improve lung functions”. For the same compound, the “Effect on replication of other RNA viruses” value (other RNA viruses) was “not the replication of other RNA viruses”, the EC50 (OC43) was 2100 nM and the “Effect on replication of picornaviruses” value (multiple picornaviruses) was “effective in blocking the replication of multiple picornaviruses”.

With `O=C(c1ccc(OCCN2CCCCC2)cc1)c1c(-c2ccc(O)cc2)sc2cc(O)ccc12` [Raloxifene] the EC50 (OC43) was 2700 nM.

For `CCC(CC)COC(=O)[C@H](C)N[P@](=O)(OC[C@H]1O[C@@](C#N)(c2ccc3c(N)ncnn23)[C@H](O)[C@@H]1O)Oc1ccccc1` [Remdesivir], the EC50 (OC43) was 960 nM.

With `COC[C@H]1C[C@@H](c2nc(-c3ccc4c(c3)COc3cc5c(ccc6nc([C@@H]7CC[C@H](C)N7C(=O)[C@@H](NC(=O)OC)C(C)C)[nH]c65)cc3-4)c[nH]2)N(C(=O)[C@H](NC(=O)OC)c2ccccc2)C1` [Velpatasvir] the EC50 (OC43) was 2000 nM.

In the case of `CC[C@H]1OC(=O)[C@H](C)[C@@H](O[C@H]2C[C@@](C)(OC)[C@@H](O)[C@H](C)O2)[C@H](C)[C@@H](O[C@@H]2O[C@H](C)C[C@H](N(C)C)[C@H]2O)[C@](C)(O)C[C@@H](C)C(=O)[C@H](C)[C@@H](O)[C@]1(C)O` [erythromycin], the “Inhibition of OC43 infection” value (OC43) is reported as “failed validation”.

With `Cc1ccc(O)c([C@H](CCN(C(C)C)C(C)C)c2ccccc2)c1` [tolertodine] the “Inhibition of OC43 infection” value (OC43) was “weak inhibitors of OC43 infection”.
